Measured values taken from US20250381168A1, “VLA4 INHIBITORS AND USES THEREOF” (Washington University, priority 2022, published 2025).
Read-outs that look alike come from different tables or passages of the source. One block for each compound: values may come before it.

Tests used:
[1] = system: hematopoietic stem/progenitor cells (HSPCs); test: HSPC mobilization into peripheral blood, colony forming unit (CFU) assay; conditions: mice; for No. CFU (×10^3)/mL ± SD, 0.25 hr: 0.25 hr post dose (TABLE 5)
[2] = molecular target: VLA-4 (a4b1) (Homo sapiens (Human), UniProt P05556+P13612); test: sVCAM flow cytometry cell-based assay (inhibition of soluble VCAM-1 binding to G2 ALL cells);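 note: compounds at 0.1 to 1000 nM preincubated 30 min with G2 ALL cells, then VCAM/Fc added for 30 min, bound VCAM-1 detected by PE secondary antibody, percent binding cells by flow cytometry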
Description: VLA-4 (a4b1) inhibitor compounds were tested for their ability to inhibit the binding of soluble VCAM-1 to human G2 acute lymphoblastic leukemia (ALL) cells. Briefly, G2 ALL cells are pre-incubated with increasing concentrations (0.1 to 1000 nM) of compounds for 30 minutes. Soluble VCAM/Fc chimera protein (R & D systems) is then added to the mixture and the cells incubated for an additional 30 minutes. Afterwards, cells are washed and VCAM-1 is detected using a PE-conjugated secondary polyclonal antibody. In each experiment, an aliquot of cells are stained with isotype control antibodies to serve as a negative control. The percentage of VCAM-1 binding cells was then determined by flow cytometry.

[3] = inhibition of sVCAM-1 binding to human G2 ALL cells (TABLE 3), read-out: SVCAM-1, IC50
[4] = as listed in TABLE 5, read-out: sVCAM IC50
[5] = single s.c. injection, peripheral blood
[6] = single s.c. injection, peripheral blood, 2 hr post dose (TABLE 5)
[7] = single s.c. injection, peripheral blood, 4 hr post dose (TABLE 5)

Chain of VLA-4 (a4b1) (P13612 34-1032): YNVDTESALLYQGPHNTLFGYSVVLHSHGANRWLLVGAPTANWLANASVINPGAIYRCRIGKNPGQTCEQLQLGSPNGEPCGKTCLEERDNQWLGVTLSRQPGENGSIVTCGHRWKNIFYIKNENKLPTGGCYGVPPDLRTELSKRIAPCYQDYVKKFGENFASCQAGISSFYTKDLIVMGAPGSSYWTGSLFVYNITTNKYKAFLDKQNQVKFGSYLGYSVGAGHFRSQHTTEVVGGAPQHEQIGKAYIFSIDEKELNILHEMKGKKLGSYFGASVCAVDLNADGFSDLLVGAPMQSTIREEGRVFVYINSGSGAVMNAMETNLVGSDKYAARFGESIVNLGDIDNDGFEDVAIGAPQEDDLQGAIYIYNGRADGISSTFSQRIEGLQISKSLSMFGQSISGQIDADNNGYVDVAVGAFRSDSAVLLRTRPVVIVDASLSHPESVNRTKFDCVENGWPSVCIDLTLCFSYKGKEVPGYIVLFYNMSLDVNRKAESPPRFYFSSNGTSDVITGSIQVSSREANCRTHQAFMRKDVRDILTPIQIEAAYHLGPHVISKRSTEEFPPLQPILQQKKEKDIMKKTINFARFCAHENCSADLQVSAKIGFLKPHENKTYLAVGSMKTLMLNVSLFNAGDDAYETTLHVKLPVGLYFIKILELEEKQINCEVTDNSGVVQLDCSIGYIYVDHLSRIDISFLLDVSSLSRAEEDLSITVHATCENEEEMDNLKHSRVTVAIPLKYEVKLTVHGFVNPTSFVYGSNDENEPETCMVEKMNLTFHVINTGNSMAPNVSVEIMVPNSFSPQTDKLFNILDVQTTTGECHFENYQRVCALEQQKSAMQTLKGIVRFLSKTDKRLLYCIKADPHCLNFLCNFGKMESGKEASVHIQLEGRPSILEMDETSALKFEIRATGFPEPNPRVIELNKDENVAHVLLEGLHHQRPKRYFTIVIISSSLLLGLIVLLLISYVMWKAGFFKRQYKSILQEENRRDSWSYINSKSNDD
Chain of VLA-4 (a4b1) (P05556 21-798): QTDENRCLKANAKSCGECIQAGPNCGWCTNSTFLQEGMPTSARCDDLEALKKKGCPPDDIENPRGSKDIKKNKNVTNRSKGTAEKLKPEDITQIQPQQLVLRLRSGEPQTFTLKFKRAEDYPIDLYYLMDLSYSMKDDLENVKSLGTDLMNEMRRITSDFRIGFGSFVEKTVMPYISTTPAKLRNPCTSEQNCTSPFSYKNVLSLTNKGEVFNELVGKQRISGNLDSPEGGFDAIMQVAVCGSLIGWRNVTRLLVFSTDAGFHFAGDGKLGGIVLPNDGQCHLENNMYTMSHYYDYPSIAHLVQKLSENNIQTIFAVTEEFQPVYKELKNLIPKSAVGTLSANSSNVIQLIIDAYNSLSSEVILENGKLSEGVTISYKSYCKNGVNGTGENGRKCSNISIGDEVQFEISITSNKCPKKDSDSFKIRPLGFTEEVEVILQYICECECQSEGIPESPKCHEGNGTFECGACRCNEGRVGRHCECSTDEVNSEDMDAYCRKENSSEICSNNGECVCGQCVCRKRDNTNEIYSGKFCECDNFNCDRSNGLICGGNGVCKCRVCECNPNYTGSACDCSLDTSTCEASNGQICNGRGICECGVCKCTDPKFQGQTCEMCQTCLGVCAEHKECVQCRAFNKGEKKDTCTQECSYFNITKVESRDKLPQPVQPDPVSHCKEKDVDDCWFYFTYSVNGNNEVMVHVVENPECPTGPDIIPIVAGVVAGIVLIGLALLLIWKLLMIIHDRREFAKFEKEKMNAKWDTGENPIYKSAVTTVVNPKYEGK

SMILES: c1cc(CN2CCCNCCNCCCNCC2)ccc1CN1CCCNCCNCCCNCC1 [AMD3100, plerixafor]
No. CFU (×10^3)/mL ± SD, 2 hr ([1]; single dose alone or in combination with AMD3100 (5 mg/kg s.c.), peripheral blood, 2 hr (TABLE 14)): 3.42 ± 1.42 (×10^3)/mL
No. CFU (×10^3)/mL ± SD, 3 hr ([1]; single dose alone or in combination with AMD3100 (5 mg/kg s.c.), peripheral blood, 3 hr (TABLE 14)): 5.08 ± 2.32 (×10^3)/mL
No. CFU (×10^3)/mL ± SD, 5 hr ([1]; single dose alone or in combination with AMD3100 (5 mg/kg s.c.), peripheral blood, 5 hr (TABLE 14)): 2.38 ± 0.73 (×10^3)/mL

SMILES: O=C(O)[C@H](Cc1ccc(OC(=O)N2CCCC2)cc1)NC(=O)[C@@H]1CCCN1S(=O)(=O)c1ccccc1 [BOP, (N-benzenesulfonyl)-L-prolyl-L-O-(1-pyrrolidinylcarbonyl)tyrosine]
IC50 ([2]; as listed in TABLE 13, for the VLA-4 inhibitor alone, read-out: sVCAM IC50): 47 nM
IC50 [2, 3]: 47.1 nM
HSPC mobilization, result in words ([1]; single dose): rapid but transient mobilization of HSPCs but are returning to baseline by 2 hours

SMILES: CN(C)c1ccc2c(c1)c(=O)n(-c1ccc(C[C@H](NC(=O)c3c(Cl)cccc3Cl)C(=O)O)cc1)c(=O)n2C [Carotegrast]
IC50 ([2]; as listed in TABLE 20, read-out: sVCAM IC50): 118 nM
IC50 [2, 3]: 118 nM
No. CFU (×10^3)/mL ± SD, 1 hr ([1]; single dose, peripheral blood, 1 hr post dose (TABLE 20)): 0.58 ± 0.19 (×10^3)/mL
No. CFU (×10^3)/mL ± SD, 4 hr ([1]; single dose, peripheral blood, 4 hr post dose (TABLE 20)): 0.18 ± 0.08 (×10^3)/mL
No. CFU (×10^3)/mL ± SD, 8 hr ([1]; single dose, peripheral blood, 8 hr post dose (TABLE 20)): 0.19 ± 0.09 (×10^3)/mL

SMILES: COCCOCCOCCOCCOCCOCCOCCOCCOCCOCCOCCOCCOCCOCCOCCOCCOCCOCCOCCOCCOCCOCCOCCOCCSCc1cc(OC)c(-c2ccc(C[C@H](NC(=O)[C@@H]3CCCN3S(=O)(=O)c3cc(Cl)cc(Cl)c3)C(=O)O)cc2)c(OC)c1 [Example 7, (2S)-2-[[(2S)-1-(3,5-dichlorophenyl)sulfonylpyrrolidine-2-carbonyl]amino]-3-[4-[2,6-dimethoxy-4-[2-[2-[2-[2-[2-[2-[2-[2-[2-[2-[2-[2-[2-[2-[2-[2-[2-[2-[2-[2-[2-[2-[2-(2-thiomethylethoxy)ethoxy]ethoxy]ethoxy]ethoxy]ethoxy]ethoxy]ethoxy]ethoxy]ethoxy]ethoxy]ethoxy]ethoxy]ethoxy]ethoxy]ethoxy]ethoxy]ethoxy]ethoxy]ethoxy]ethoxy]ethoxy]ethoxy]ethoxymethyl]phenyl]phenyl]propanoic acid]
IC50 ([2]; as listed in TABLE 11, read-out: sVCAM IC50): 1.36 nM
IC50 [2, 3]: 1.36 nM
No. CFU (x10^3)/mL ± SD, 2 hr ([1]; single dose, peripheral blood, 2 hr post dose (TABLE 11)): 2.53 ± 1.11 (x10^3)/mL
No. CFU (x10^3)/mL ± SD, 4 hr ([1]; single dose, peripheral blood, 4 hr post dose (TABLE 11)): 3.91 ± 1.44 (x10^3)/mL
No. CFU (x10^3)/mL ± SD, 6 hr ([1]; single dose, peripheral blood, 6 hr post dose (TABLE 11)): 2.96 ± 1.15 (x10^3)/mL
No. CFU (x10^3)/mL ± SD, 24 hr ([1]; single dose, peripheral blood, 24 hr post dose (TABLE 11)): 0.15 ± 0.05 (x10^3)/mL

The next lines start with results.

IC50 [2, 4]: 3.83 nM
IC50 [2, 3]: 3.83 nM
SMILES: COc1cc(CO)cc(OC)c1-c1ccc(C[C@H](NC(=O)c2c(Cl)cc(C(=O)O)cc2Cl)C(=O)O)cc1 [Example C2]
No. CFU (×10^3)/mL ± SD, 0.25 hr [1, 5]: 4.08 ± 1.66 (×10^3)/mL
No. CFU (×10^3)/mL ± SD, 2 hr [1, 6]: 2.87 ± 1.47 (×10^3)/mL
No. CFU (×10^3)/mL ± SD, 4 hr [1, 7]: 0.53 ± 0.30 (×10^3)/mL

IC50 [2, 4]: 1.35 nM
IC50 [2, 3]: 1.35 nM
SMILES: CCOCc1cc(OC)c(-c2ccc(C[C@H](NC(=O)c3c(Cl)cc(C(=O)O)cc3Cl)C(=O)O)cc2)c(OC)c1 [Example C3]
No. CFU (×10^3)/mL ± SD, 0.25 hr [1, 5]: 3.69 ± 0.52 (×10^3)/mL
No. CFU (×10^3)/mL ± SD, 2 hr [1, 6]: 1.58 ± 0.74 (×10^3)/mL
No. CFU (×10^3)/mL ± SD, 4 hr [1, 7]: 0.30 ± 0.11 (×10^3)/mL

IC50 [2, 4]: 1.69 nM
IC50 ([2]; as listed in TABLE 17, read-out: sVCAM IC50): 1.69 nM
IC50 [2, 3]: 1.69 nM
SMILES: COCCOCCOCCOCc1cc(OC)c(-c2ccc(C[C@H](NC(=O)c3c(Cl)cc(C(=O)O)cc3Cl)C(=O)O)cc2)c(OC)c1 [Example C4]
time to which HSPC mobilization is extended after a single dose [1]: ≤ 2 h
No. CFU (×10^3)/mL ± SD, 2 hr ([1]; alone or in combination with Plerixafor and tGroβ, peripheral blood, 2 hr (TABLE 17)): 2.91 ± 0.83 (×10^3)/mL
No. CFU (×10^3)/mL ± SD, 4 hr ([1]; alone or in combination with Plerixafor and tGroβ, peripheral blood, 4 hr (TABLE 17)): 0.53 ± 0.16 (×10^3)/mL
No. CFU (×10^3)/mL ± SD, 6 hr ([1]; alone or in combination with Plerixafor and tGroβ, peripheral blood, 6 hr (TABLE 17)): 0.28 ± 0.09 (×10^3)/mL
No. CFU (×10^3)/mL ± SD, 0.25 hr [1, 5]: 4.73 ± 1.31 (×10^3)/mL
No. CFU (×10^3)/mL ± SD, 2 hr [1, 6]: 1.47 ± 0.51 (×10^3)/mL
No. CFU (×10^3)/mL ± SD, 4 hr [1, 7]: 0.49 ± 0.12 (×10^3)/mL
